The target in one assay is T1, 11β-HSD2 (Homo sapiens, UniProt P80365).
T1 construct: endogenous in cells; host or cells: HepG2 (ATCC HB-8065)
T1 sequence (P80365 1-405): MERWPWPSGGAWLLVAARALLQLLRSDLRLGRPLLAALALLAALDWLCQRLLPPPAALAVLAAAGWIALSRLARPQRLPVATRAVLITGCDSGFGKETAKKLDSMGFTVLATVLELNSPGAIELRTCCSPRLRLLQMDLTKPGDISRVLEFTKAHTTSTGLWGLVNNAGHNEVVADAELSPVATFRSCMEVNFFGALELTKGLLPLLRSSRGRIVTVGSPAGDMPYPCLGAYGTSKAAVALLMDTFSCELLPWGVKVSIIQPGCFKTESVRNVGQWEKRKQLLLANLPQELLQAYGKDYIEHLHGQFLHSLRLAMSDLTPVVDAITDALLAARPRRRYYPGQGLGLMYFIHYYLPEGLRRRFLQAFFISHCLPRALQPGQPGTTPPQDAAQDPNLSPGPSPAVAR
The assay is described as follows: Cellular assay of 11β-HSD2 activity in HepG2 cells. The class given is cell-based. As to conditions: 4 hour pre-incubation, 10^-5M to 10^-10M, read-out: HSD2 cellular HepG2 Score. The procedure:
The effects on 11β-HSD2 activity was studied in HepG2 and LCC-PK1-cells HepG2-cells (ATCC HB-8065) were seeded in 12 well plates at a density of 100,000 cells/ml and grown at 37° C. in a humidified 5% CO2 atmosphere in MEM-Rega-3 medium supplemented with 10% heat inactivated foetal calf serum, 2 mM L-glutamine and sodium bicarbonate). Medium was refreshed twice a week.
Following a 4 hour pre-incubation with test compound, 0.5 μCi ^3H-cortisol or corticosterone, was added to the cultures. One hour later, the medium was extracted on Extrelut^3-columns with 15 ml diethyl ether and the extract was analysed by HPLC as described above.
(§1) As for the enzymatic assays, the compounds to be tested were taken from a stock solution and tested at a final concentration ranging from 10^−5M to 10^−10M. From the thus obtained dose response curves, the pIC50 value was calculated and scored as follows; Score 1=pIC50 value<5, Score 2=pIC50 value in the range of 5 to 6, Score 3=pIC50 value>6. (in this table NT stands for Not Tested).

For another assay, the target named is T2, 11β-HSD1 (Mus musculus, UniProt P50172).
T2 construct: endogenous in cells; host or cells: 3T3-L1 (ATCC-CL-173), differentiated into adipocytes
T2 sequence (P50172 whole entry): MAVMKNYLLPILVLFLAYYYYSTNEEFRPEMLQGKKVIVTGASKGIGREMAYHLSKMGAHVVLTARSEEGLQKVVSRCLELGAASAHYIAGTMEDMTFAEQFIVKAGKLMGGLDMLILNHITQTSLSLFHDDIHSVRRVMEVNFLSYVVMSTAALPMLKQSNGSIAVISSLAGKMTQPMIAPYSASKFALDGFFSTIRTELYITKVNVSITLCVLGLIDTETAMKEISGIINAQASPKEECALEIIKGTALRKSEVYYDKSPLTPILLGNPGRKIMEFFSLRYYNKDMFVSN
The assay is described as follows: Cellular assay of 11β-HSD1 activity in differentiated 3T3-L1 cells. The class given is cell-based. As to conditions: 4 hour pre-incubation, 10^-5M to 10^-10M, read-out: HSD1 cellular 3T3-L1 Score. The procedure: The effects on 11β-HSD1 activity was measured in differentiated 3T3-L1 cells and rat hepatocytes.
Mouse fibroblast 3T3-L1 cells (ATCC-CL-173) were seeded at a density of 16500 cells/ml in 12 well plates and grown for 7 days in DMEM medium (supplemented with 10% heat inactivated foetal calf serum, 2 mM glutamine and 25 mg gentamycin) at 37° C. in a humidified 5% CO2 atmosphere. Medium was refreshed twice a week. Fibroblasts were differentiated into adipocytes at 37° C. in a 5% CO2 humidified atmosphere in growth medium containing 2 μg/ml insulin, 55 μg/ml IBMX and 39.2 μg/ml dexamethasone.
Primary hepatocytes from male rats were seeded on normal Falcon 12 well plates at a density of 250000 cells/well and incubated for 16 hours at 37° C. in a 5% CO2 humidified atmosphere in DMEM-HAM's F12 medium containing 5% Nu-serum, 100 U/ml penicillin, 100 μg/ml streptomycin, 0.25 μg/ml amphotericin B, 50 μg/ml gentamycin sulfate, 5 μg/ml insulin and 392 ng/ml dexamethasone. Following a 4 hour pre-incubation with test compound, 0.5 μCi ^3H-cortisone or dehydrocorticosterone, was added to the 3T3-L1 cultures. One hour later, the medium was extracted on Extrelut^3-columns with 15 ml diethyl ether and the extract was analysed by HPLC as described above. The effects of JNJ-compounds on rat hepatocyte HSD1 activity was measured after an incubation period of 90 minutes with 0.5 μCi^3H-dehydrocorticosterone. Corticosterone formation was analysed by HPLC.
as §1

Molecules are shown by their SMILES. Some results are limits rather than exact numbers.

As to `Cc1ccc(S(=O)(=O)N[C@@]23CC4C[C@H](C2)[C@H](NC(=O)C(C)(C)Oc2ccc(Cl)cc2C)[C@@H](C4)C3)cc1` [Compound 77], the IC50 at 11β-HSD2 was greater than 10 µM; at 11β-HSD1, less than 1 µM.
In the same order, the values of `Cc1cccc(OC(C)(C)C(=O)N[C@H]2[C@@H]3CC4C[C@H]2C[C@](O)(C4)C3)c1` [Compound 10] are 1 to 10 µM and less than 1 µM.
For `Cc1cc(C)cc(OC(C)(C)C(=O)NC2C3CC4CC(C3)CC2C4)c1` (stereo not shown) [Compound 2] the same measures were greater than 10 µM and less than 1 µM.
In the same order, the values of `Cc1ccc(OC(C)(C)C(=O)NC2C3CC4CC2CC(c2ccccc2)(C4)C3)cc1` (stereo not shown) [Compound 49] are greater than 10 µM and 1 to 10 µM.
As for `Cc1ccc(OC(C)(C)C(=O)N[C@H]2[C@@H]3CC4C[C@H]2C[C@](OC(=O)Nc2cccc(C)c2)(C4)C3)cc1` [Compound 47], the IC50 was 1 to 10 µM on 11β-HSD2 and less than 1 µM on 11β-HSD1.
In the same order, the values of `CN(C)c1cccc(OC(C)(C)C(=O)N[C@H]2[C@@H]3CC4C[C@H]2C[C@](O)(C4)C3)c1` [Compound 18] are less than 1 µM and less than 1 µM.
As to `CC(C)(Oc1cccc(Cl)c1)C(=O)N[C@H]1[C@@H]2CC3C[C@H]1C[C@](N)(C3)C2` [Compound 85], the IC50 on 11β-HSD2 is greater than 10 µM; on 11β-HSD1, less than 1 µM.
In the same order, the values of `CC(C)(Sc1ccc(Cl)cc1)C(=O)N[C@H]1[C@@H]2CC3C[C@H]1C[C@](O)(C3)C2` [Compound 4] are 1 to 10 µM and less than 1 µM.
For the compound `O=C(N[C@H]1[C@@H]2CC3C[C@H]1C[C@](O)(C3)C2)c1cc2ccccc2o1` [Compound 23], the IC50 was greater than 10 µM on 11β-HSD2 and less than 1 µM on 11β-HSD1.
In the same order, the values of `Cc1ccc(OC(C)(C)C(=O)N[C@@H]2[C@@H]3CC4C[C@H]2C[C@](OCc2ccccc2)(C4)C3)cc1` [Compound 48] are less than 1 µM and less than 1 µM.
In the same order, the values of `CC(C)(Oc1ccccc1)C(=O)N[C@H]1[C@@H]2CC3C[C@H]1C[C@](O)(C3)C2` [Compound 69] are 1 to 10 µM and less than 1 µM.
In the same order, the values of `Cc1cc(Cl)ccc1OC(C)(C)C(=O)N[C@H]1[C@@H]2CC3C[C@H]1C[C@](NC(=O)CC(C)C)(C3)C2` [Compound 64] are 1 to 10 µM and less than 1 µM.
Take `COc1cccc(OC(C)(C)C(=O)N[C@H]2[C@@H]3CC4C[C@H]2C[C@](O)(C4)C3)c1` [Compound 14]: the IC50 at 11β-HSD2 and at 11β-HSD1 was less than 1 µM in each case.
In the case of `CCOC(=O)N[C@@]12CC3C[C@H](C1)[C@H](NC(=O)C(C)(C)Oc1ccc(Cl)cc1C)[C@@H](C3)C2` [Compound 45], the IC50 is 1 to 10 µM at 11β-HSD2 and less than 1 µM at 11β-HSD1.
On to `Cc1c(C(=O)N[C@H]2[C@@H]3CC4C[C@H]2C[C@](O)(C4)C3)oc2ccccc12` [Compound 7], for which the IC50 on 11β-HSD2 is greater than 10 µM; on 11β-HSD1, less than 1 µM.
For `Cc1ccccc1NC(C)(C)C(=O)N[C@H]1[C@@H]2CC3C[C@H]1C[C@](F)(C3)C2` [Compound 35] the same measures were 1 to 10 µM and less than 1 µM.
In the same order, the values of `CC(C)(Oc1cccc(C(F)(F)F)c1)C(=O)N[C@H]1[C@@H]2CC3C[C@H]1C[C@](N)(C3)C2` [Compound 81] are greater than 10 µM and less than 1 µM.
As to `Cc1ccc2c(c1)NCC(C(=O)N[C@H]1[C@@H]3CC4C[C@H]1C[C@](O)(C4)C3)O2` (stereo partly shown) [Compound 11], the IC50 at 11β-HSD2 is 1 to 10 µM; at 11β-HSD1 it was less than 1 µM.
On to `CC(C)(Oc1cccc(Cl)c1)C(=O)N[C@H]1[C@@H]2CC3C[C@H]1C[C@](O)(C3)C2` [Compound 43], for which the IC50 at 11β-HSD2 and on 11β-HSD1 was less than 1 µM throughout.
Turning to `Cc1cc(Cl)ccc1OC(C)(C)C(=O)N[C@H]1[C@@H]2CC3C[C@H]1C[C@](N1CCCC1=O)(C3)C2` [Compound 39], the IC50 at 11β-HSD2 and on 11β-HSD1 was less than 1 µM each time.
As for `Cc1cc(Cl)ccc1OC(C)(C)C(=O)N[C@H]1[C@@H]2CC3C[C@H]1C[C@](O)(C3)C2` [Compound 1], the IC50 at 11β-HSD2 and on 11β-HSD1 was less than 1 µM throughout.
`CC(C)(Oc1cccc(Br)c1)C(=O)N[C@H]1[C@@H]2CC3C[C@H]1C[C@](N)(C3)C2` [Compound 93]: the IC50 at 11β-HSD2 was greater than 10 µM; on 11β-HSD1 it was less than 1 µM.
In the same order, the values of `CC(C)(Oc1ccccc1Br)C(=O)N[C@H]1[C@@H]2CC3C[C@H]1C[C@](O)(C3)C2` [Compound 15] are less than 1 µM and less than 1 µM.
Regarding `Cc1ccc(OC(C)(C)C(=O)N[C@H]2[C@@H]3CC4C[C@H]2C[C@](OCc2ccccc2)(C4)C3)cc1` [Compound 52], the IC50 was 1 to 10 µM at 11β-HSD2 and less than 1 µM on 11β-HSD1.
For `Cc1cc(Cl)ccc1OC(C)(C)C(=O)N[C@H]1[C@@H]2CC3C[C@H]1C[C@](NC(=O)CN1CCOCC1)(C3)C2` [Compound 73] the same measures were 1 to 10 µM and less than 1 µM.
For `Cc1cc(Cl)ccc1OC(C)(C)C(=O)N[C@H]1[C@@H]2CC3C[C@H]1C[C@](N1CCC(C)C1=O)(C3)C2` (stereo partly shown) [Compound 91] the same measures were less than 1 µM and less than 1 µM.
For the compound `CC(=O)N[C@@]12CC3C[C@H](C1)[C@H](NC(=O)C(C)(C)Nc1ccc(C)cc1)[C@@H](C3)C2` [Compound 37], the IC50 on 11β-HSD2 was greater than 10 µM; at 11β-HSD1, less than 1 µM.
In the same order, the values of `CC(C)(Nc1ccccc1)C(=O)N[C@H]1[C@@H]2CC3C[C@H]1C[C@](O)(C3)C2` [Compound 54] are greater than 10 µM and less than 1 µM.
In the same order, the values of `CC(=O)N[C@@]12CC3C[C@H](C1)[C@H](NC(=O)C(C)(C)Nc1cccc(C)c1)[C@@H](C3)C2` [Compound 70] are 1 to 10 µM and less than 1 µM.
Turning to `COc1ccc(NC(C)(C)C(=O)N[C@H]2[C@@H]3CC4C[C@H]2C[C@](NC(C)=O)(C4)C3)cc1` [Compound 76], the IC50 was greater than 10 µM at 11β-HSD2 and less than 1 µM on 11β-HSD1.
For `COc1cccc(NC(C)(C)C(=O)N[C@H]2[C@@H]3CC4C[C@H]2C[C@](O)(C4)C3)c1` [Compound 53] the same measures were greater than 10 µM and less than 1 µM.
In the same order, the values of `CC(=O)N[C@@]12CC3C[C@H](C1)[C@H](NC(=O)C(C)(C)Nc1ccc(Br)cc1C)[C@@H](C3)C2` [Compound 74] are 1 to 10 µM and less than 1 µM.
For `Cc1ccc(NC(C)(C)C(=O)N[C@H]2[C@@H]3CC4C[C@H]2C[C@](O)(C4)C3)cc1` [Compound 27] the same measures were greater than 10 µM and less than 1 µM.
Consider `CC(C)(Oc1cccc(C(F)(F)F)c1)C(=O)N[C@H]1[C@@H]2CC3C[C@H]1C[C@](NS(=O)(=O)CC(F)(F)F)(C3)C2` [Compound 88], for which the IC50 was 1 to 10 µM at 11β-HSD2 and less than 1 µM on 11β-HSD1.
On to `CC(C)(Oc1cccc(C(F)(F)F)c1)C(=O)N[C@H]1[C@@H]2CC3C[C@H]1C[C@](NS(C)(=O)=O)(C3)C2` [Compound 83], for which the IC50 is 1 to 10 µM at 11β-HSD2 and less than 1 µM at 11β-HSD1.
In the same order, the values of `CC(C)(Nc1cccc(C(F)(F)F)c1)C(=O)N[C@H]1[C@@H]2CC3C[C@H]1C[C@](F)(C3)C2` [Compound 61] are greater than 10 µM and less than 1 µM.
For `O=C(N[C@H]1[C@@H]2CC3C[C@H]1C[C@](O)(C3)C2)C1Cc2ccccc2O1` (stereo partly shown) [Compound 24] the same measures were 1 to 10 µM and less than 1 µM.
For `Cc1cc(Cl)ccc1OC(C)(C)C(=O)N[C@H]1[C@@H]2CC3C[C@H]1C[C@](N(C)C)(C3)C2` [Compound 46] the same measures were greater than 10 µM and less than 1 µM.

For the origin of these results see US8344181B2, “N-2 adamantanyl-2-phenoxy-acetamide derivatives as 11-beta hydroxysteroid dehydrogenase inhibitors” (Janssen Pharmaceutica N.V., priority 2004, dated 2013).
